Common to all, as to test: Minimum inhibitory concentration by the plate test (agar)
Common to all, as to type: cell-based

One assay relates to Escherichia coli A 261. To be noted: 0-10 colonies formed, pH 7.4; for Minimum inhibitory concentration: per ml of nutrient medium, 5,000 cells/10 ml. How it is done:
(§1) […] The bacteria to be tested are cast, together with the nutrient medium and the test substance distributed in the agar, into a Petri dish. The number of bacterial cells is 5,000/10 ml of nutrient medium. The minimum inhibitory concentration is the concentration at which 0-10 colonies are formed.

The test system of a further assay is Escherichia coli C 165. The following applies: 0-10 colonies formed, pH 7.4; for Minimum inhibitory concentration: per ml of nutrient medium, 5,000 cells/10 ml. The method, then:
as §1

Assay [1] relates to Staphylococcus aureus 133. The following applies: per ml of nutrient medium, 5,000 cells/10 ml, 0-10 colonies formed, pH 7.4. The method, then:
as §1

The next assay concerns Klebsiella 8085. To be noted: per ml of nutrient medium, 5,000 cells/10 ml, 0-10 colonies formed, pH 7.4. How it is done: as §1
For a further assay, the system named is Proteus vulgaris 1017. To be noted: per ml of nutrient medium, 5,000 cells/10 ml, 0-10 colonies formed, pH 7.4. The method, then: as §1

One may read the MIC as the lowest concentration found to suppress growth.

≈ marks a conversion by molar mass, not a printed value.

For the molecule “6(7)-bromo-2-mercapto-3-methyl-quinoxaline-di-N-oxide [Example 4]”, the Minimum inhibitory concentration (in the assay on Escherichia coli A 261; in the assay on Escherichia coli C 165; in assay [1]) was 100 µg/mL each time.

Turning to “6(7)-chloro-2-mercapto-3-methyl-quinoxaline-di-N-oxide [Example 2]”, the Minimum inhibitory concentration in the assay with Escherichia coli A 261 was 128 µg/mL; in the assay with Escherichia coli C 165, 128 µg/mL; in the assay on Klebsiella 8085, 128 µg/mL; with Proteus vulgaris 1017 it was 64 to 128 µg/mL; in assay [1] it was 128 µg/mL.

As for “6(7)-fluoro-2-mercapto-3-methyl-quinoxaline-di-N-oxide [Example 3]”, the Minimum inhibitory concentration is 128 µg/mL in the assay on Escherichia coli A 261, 64 to 128 µg/mL with Escherichia coli C 165, 128 µg/mL in the assay with Proteus vulgaris 1017 and 128 µg/mL in assay [1].

As to “6(7)-methoxy-2-mercapto-3-methyl-quinoxaline-di-N-oxide [Example 7]”, the Minimum inhibitory concentration is 128 µg/mL in the assay on Escherichia coli A 261, 64 to 128 µg/mL with Escherichia coli C 165, 128 µg/mL with Proteus vulgaris 1017 and 128 µg/mL in assay [1].

Regarding `Cc1c(S)[n+]([O-])c2ccccc2[n+]1[O-]` [Example 1, 2-Mercapto-3-methylquinoxaline-di-N-oxide], the minimal inhibitory concentration (MIC) was 50 to 100 µg/mL (≈ 240 to 480 µM) in the assay on Escherichia coli A 261 (A261, per ml of nutrient medium, 5,000 cells/10 ml); 50 to 100 µg/mL (≈ 240 to 480 µM) against Escherichia coli C 165 (C165, per ml of nutrient medium, 5,000 cells/10 ml); 10 µg/mL (≈ 48 µM) in the assay on Klebsiella 8085; 100 µg/mL (≈ 480 µM) against Proteus vulgaris 1017; 100 µg/mL (≈ 480 µM) in assay [1].

(Values after patent US4033960A, “2-Mercaptoquinoxaline-di-N-oxide products and a method for their preparation” (Bayer Aktiengesellschaft, priority 1973, dated 1977).)
